Test results: patent US6593326B1, “2,4-diamino pyrimidine compounds having anti-cell proliferative activity” (AstraZeneca AB, priority 1998, dated 2003)

Tests used:
CDK4/Cyclin D1 = biological target: T1, CDK4/Cyclin D1 (Homo sapiens, UniProt P11802); test: CDK4 Inhibition Assay (Scintillation Proximity Assay, GST-Retinoblastoma substrate); type: biochemical; conditions: in vitro kinase assay; read-out: CDK4 inhibitory activity IC50
T1 construct: made in house; host or cells: Sf21 insect cells (baculovirus co-infection, pVL1393); the substrate was made in E. coli BL21 (DE3) pLysS
Procedure: The compounds were tested in an in vitro kinase assay in 96 well format using Scintillation Proximity Assay (SPA-obtained from Amersham) for measuring incorporation of [γ-33-P]-Adenosine Triphosphate into a test substrate (GST-Retinoblastoma). In each well was placed the compound to be tested (diluted in DMSO and water to correct concentrations) and in control wells either p16 as an inhibitor control or DMSO as a positive control.
Approximately 0.5 μl of CDK4/Cyclin D1 partially-purified enzyme (amount dependent on enzyme activity) diluted in 25 μl incubation buffer was added to each well then 20 μl of GST-Rb/ATP/ATP33 mixture (containing 0.5 μg GST-Rb and 0.2 μM ATP and 0.14 μCi [γ-33-P]-Adenosine Triphosphate), and the resulting mixture shaken gently, then incubated at room temperature for 60 minutes. […]
The plates were sealed with Topseal-S plate sealers, left for two hours then spun at 2500 rpm, 1124×g., for 5 minutes. The plates were read on a Topcount for 30 seconds per well. […]
E.coli paste was resuspended in 10 ml/g of NETN buffer (50 mM Tris pH 7.5, 120 mM NaCl, 1 mM EDTA, 0.5% v/v NP-40, 1 mM PMSF, 1 ug/ml leupeptin, 1 ug/ml aprotinin and 1 ug/ml pepstatin) and sonicated for 2×45 seconds per 100 ml homogenate. […] The final product was analysed by Sodium Dodeca Sulfate (SDS) PAGE (Polyacrylamide gel) using 8-16% Tris-Glycine gels (Novex, San Diego, USA). […]

[1] = biological target: T2, human Focal Adhesion Kinase (FAK) (Homo sapiens, UniProt Q05397); test: FAK3 Kinase Inhibition Assay; type: biochemical; conditions: in vitro enzyme assay; read-out: FAK inhibitory activity IC50
T2 construct: FAK (full length human cDNA described by Andre et al); made in house; host or cells: Sf21 insect cells (baculovirus, pFastbac 1)
Text: FAK3 Kinase Inhibition Assay
This assay determines the ability of a test compound to inhibit tyrosine kinase activity of human Focal Adhesion Kinase (FAK).
DNA encoding FAK is obtained by total gene synthesis (Edwards M, International Biotechnology Lab 5(3), 19-25, 1987) or by cloning. These are then expressed in a suitable expression system to obtain polypeptide with tyrosine kinase activity.
Active FAK protein has been previously expressed in a baculovirus system using a similar N-terminal 6-histidine tag (Protein Expression And Purification, 1996, 7: 12-18). The human FAK cDNA was cloned into the baculovirus transplacement vector, pFastbac 1 (Life Technologies), and the recombinant construct was co-transfected into insect cells (for example Spodoptera frugiperda 21(Sf21)) with viral DNA to prepare recombinant baculovirus (details of the methods for the assembly of recombinant DNA molecules and the preparation and use of recombinant baculovirus can be found in standard texts for example Sambrook et al, 1989, Molecular cloning—A Laboratory Manual, 2nd edition, Cold Spring Harbour Laboratory Press and O'Reilly et al, 1992, Baculovirus Expression Vectors—A Laboratory Manual, W. H. Freeman and Co, New York. Details specific to the use of the pFastbac (‘Bac to Bac’) system are provided in Anderson et al., 1995, FOCUS (Life Technologies Bulletin Magazine), 17, p53.) […]

T2 sequence (Q05397 whole entry): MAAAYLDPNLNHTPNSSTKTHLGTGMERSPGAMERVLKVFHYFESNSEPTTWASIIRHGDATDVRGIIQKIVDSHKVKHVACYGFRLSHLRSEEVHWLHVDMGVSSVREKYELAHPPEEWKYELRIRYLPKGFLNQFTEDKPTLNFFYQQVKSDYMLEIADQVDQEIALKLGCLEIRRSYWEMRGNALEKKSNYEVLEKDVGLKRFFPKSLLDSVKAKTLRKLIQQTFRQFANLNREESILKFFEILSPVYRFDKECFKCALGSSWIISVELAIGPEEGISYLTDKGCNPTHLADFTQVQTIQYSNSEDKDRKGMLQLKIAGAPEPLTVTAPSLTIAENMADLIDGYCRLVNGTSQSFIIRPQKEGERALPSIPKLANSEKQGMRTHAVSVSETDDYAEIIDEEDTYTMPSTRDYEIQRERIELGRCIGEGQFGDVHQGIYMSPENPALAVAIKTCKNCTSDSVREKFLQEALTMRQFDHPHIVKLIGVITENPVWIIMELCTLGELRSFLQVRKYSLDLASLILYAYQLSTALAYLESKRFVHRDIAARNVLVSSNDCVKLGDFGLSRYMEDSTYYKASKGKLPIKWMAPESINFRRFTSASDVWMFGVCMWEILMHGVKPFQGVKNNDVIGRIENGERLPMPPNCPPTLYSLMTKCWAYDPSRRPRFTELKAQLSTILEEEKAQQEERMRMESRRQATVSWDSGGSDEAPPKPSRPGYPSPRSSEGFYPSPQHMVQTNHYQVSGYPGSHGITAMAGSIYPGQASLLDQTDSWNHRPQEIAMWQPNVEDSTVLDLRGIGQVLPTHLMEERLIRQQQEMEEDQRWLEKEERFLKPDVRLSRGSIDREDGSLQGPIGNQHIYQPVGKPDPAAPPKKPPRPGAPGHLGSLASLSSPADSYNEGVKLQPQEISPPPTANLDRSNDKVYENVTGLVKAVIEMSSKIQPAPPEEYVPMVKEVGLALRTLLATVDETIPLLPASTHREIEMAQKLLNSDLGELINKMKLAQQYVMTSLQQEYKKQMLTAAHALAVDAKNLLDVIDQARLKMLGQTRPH
T1 sequence (P11802 whole entry): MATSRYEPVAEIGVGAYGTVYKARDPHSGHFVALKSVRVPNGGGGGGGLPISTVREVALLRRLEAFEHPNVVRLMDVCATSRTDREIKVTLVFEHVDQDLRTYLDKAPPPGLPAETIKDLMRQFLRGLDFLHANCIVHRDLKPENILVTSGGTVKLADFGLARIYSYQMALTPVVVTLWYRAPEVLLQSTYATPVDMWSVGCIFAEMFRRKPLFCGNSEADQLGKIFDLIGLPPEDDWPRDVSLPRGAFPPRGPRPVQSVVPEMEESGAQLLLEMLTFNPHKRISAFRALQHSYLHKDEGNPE
T1 sequence (P24385 whole entry partner): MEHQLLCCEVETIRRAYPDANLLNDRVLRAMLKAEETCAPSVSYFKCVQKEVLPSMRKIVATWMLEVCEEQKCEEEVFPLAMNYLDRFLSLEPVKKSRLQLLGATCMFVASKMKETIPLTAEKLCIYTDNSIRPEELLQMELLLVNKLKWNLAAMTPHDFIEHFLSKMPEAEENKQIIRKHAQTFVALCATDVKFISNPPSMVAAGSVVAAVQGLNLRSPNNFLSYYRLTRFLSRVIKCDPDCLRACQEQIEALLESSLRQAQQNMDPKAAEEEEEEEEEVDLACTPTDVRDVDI

Row | IC50 (CDK4/Cyclin D1) [nM] | IC50 [1] [nM] | Structure (SMILES)
1 | 20 | – | Cc1ccc(F)c(Nc2nc(Nc3ccc(OCC(O)CN(C)C)cc3)ncc2Br)c1 (stereo not shown) [Example 5, 2-{4-[3-(N,N-Dimethyl)amino-2-hydroxy-propoxy]anilino}-4-(2-fluoro-5-methylanilino)-5-bromo-pyrimidine]
2 | – | 70 | CC(C)NCCCNc1ccc(Nc2ncc(Br)c(Nc3ccccn3)n2)cc1 [Example 220]
3 | – | 32 | CN(C)CC(O)COc1ccc(Nc2ncc([N+](=O)[O-])c(Nc3ccccc3F)n2)cc1 (stereo not shown) [Example 6]
4 | 70 | – | CN(C)CC(O)COc1ccc(Nc2ncc(Br)c(Nc3ccccc3)n2)cc1 (racemic) [Example 3, 4-anilino-5-bromo-2-{4-[3-(N,N-dimethyl)amino-2-hydroxypropoxy]anilino}pyrimidine]
